What was measured:
Format in all cases: in vivo
[1] = test system: Echinochloa crus-galli (L.) P. Beauv. var. formosensis Ohwi; assay: Test for Herbicidal Effect in Flooding Treatment (#1), ECHDG; conditions: flooding treatment at seeding, dose 2 kg/ha, visual observation on day 21
How it was run: (§1)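 Sieved soil in cups was flooded and left 24 h before weed seeds were sown. Compounds in acetone, diluted with Tween 80-containing water, were dropped over the whole surface at 2 kg/ha. After 21 days in a glasshouse, growth inhibition was scored visually from 0 (<10%) to 5 (≥90% or complete withering).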

Scirpus juncoides = assay: Test for Herbicidal Effect in Flooding Treatment (#1), SCIJU; conditions: flooding treatment at seeding, dose 2 kg/ha, visual observation on day 21
How it was run: as §1

Cyperus microiria = assay: Test for Herbicidal Effect in Flooding Treatment (#1), CYMIC; conditions: flooding treatment at seeding, dose 2 kg/ha, visual observation on day 21
How it was run: as §1

[2] = test system: Echinochloa crus-galli (L.) P. Beauv. var. formosensis Ohwi; assay: Test for Herbicidal Effect in Flooding Treatment (#2), ECHDG at 2-2.5 leaf stage; conditions: flooding treatment at 2-2.5 leaf stage, dose 0.2 kg/ha, visual observation on day 21
How it was run: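 Flooded muddy soil was seeded with the weed, and at 2–2.5 leaf stage compound in acetone/Tween 80 water was dropped on the water surface at 0.2 kg/ha. Plants were kept in a glasshouse and scored visually on day 21 from 0 (<10% growth inhibition) to 5 (≥90% or complete withering).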

Row | SMILES | ECHDG #1 herbicidal effect (growth inhibition grade) [1] | SCIJU #1 herbicidal effect (growth inhibition grade) (Scirpus juncoides) | CYMIC #1 herbicidal effect (growth inhibition grade) (Cyperus microiria) | ECHDG (2-2.5L) #2 herbicidal effect (growth inhibition grade) [2]
1 | CCOc1ccc(CS(=O)(=O)c2ncc(Cl)s2)cc1F [Compound 1C-95] | 5 (Growth inhibition effect is equal to or greater than 90%, or complete withering is achieved) | 5 (Growth inhibition effect is equal to or greater than 90%, or complete withering is achieved) | 5 (Growth inhibition effect is equal to or greater than 90%, or complete withering is achieved) | 3 (Growth inhibition effect equal to or greater than 50%, and less than 70%)
2 | CCOc1ccc(CS(=O)(=O)c2ncc(Cl)s2)cc1Cl [Compound 1C-96] | 5 (Growth inhibition effect is equal to or greater than 90%, or complete withering is achieved) | 5 (Growth inhibition effect is equal to or greater than 90%, or complete withering is achieved) | 5 (Growth inhibition effect is equal to or greater than 90%, or complete withering is achieved) | 4 (Growth inhibition effect is equal to or greater than 70%, and less than 90%)
3 | CCOc1ccc(CS(=O)(=O)c2ncc(Cl)s2)cc1C [Compound 1C-97] | 5 (Growth inhibition effect is equal to or greater than 90%, or complete withering is achieved) | 5 (Growth inhibition effect is equal to or greater than 90%, or complete withering is achieved) | 5 (Growth inhibition effect is equal to or greater than 90%, or complete withering is achieved) | 3 (Growth inhibition effect equal to or greater than 50%, and less than 70%)
4 | CCOc1cc(Cl)c(CS(=O)(=O)c2ncc(Cl)s2)cc1Cl [Compound 1C-102] | 5 (Growth inhibition effect is equal to or greater than 90%, or complete withering is achieved) | 5 (Growth inhibition effect is equal to or greater than 90%, or complete withering is achieved) | 5 (Growth inhibition effect is equal to or greater than 90%, or complete withering is achieved) | 4 (Growth inhibition effect is equal to or greater than 70%, and less than 90%)
5 | CCOc1cc(F)c(CS(=O)(=O)c2ncc(Cl)s2)c(F)c1 [Compound 1C-103] | 5 (Growth inhibition effect is equal to or greater than 90%, or complete withering is achieved) | 5 (Growth inhibition effect is equal to or greater than 90%, or complete withering is achieved) | 5 (Growth inhibition effect is equal to or greater than 90%, or complete withering is achieved) | 5 (Growth inhibition effect is equal to or greater than 90%, or complete withering is achieved)
6 | CCOc1c(Cl)cc(CS(=O)(=O)c2ncc(Cl)s2)cc1Cl [Compound 1C-106] | 5 (Growth inhibition effect is equal to or greater than 90%, or complete withering is achieved) | 5 (Growth inhibition effect is equal to or greater than 90%, or complete withering is achieved) | 5 (Growth inhibition effect is equal to or greater than 90%, or complete withering is achieved) | 3 (Growth inhibition effect equal to or greater than 50%, and less than 70%)
7 | CCOc1c(C)cc(CS(=O)(=O)c2ncc(Cl)s2)cc1C [Compound 1C-107] | 5 (Growth inhibition effect is equal to or greater than 90%, or complete withering is achieved) | 5 (Growth inhibition effect is equal to or greater than 90%, or complete withering is achieved) | 5 (Growth inhibition effect is equal to or greater than 90%, or complete withering is achieved) | 4 (Growth inhibition effect is equal to or greater than 70%, and less than 90%)
8 | CCOc1c(F)c(F)c(CS(=O)(=O)c2ncc(Cl)s2)c(F)c1F [Compound 1C-108] | 5 (Growth inhibition effect is equal to or greater than 90%, or complete withering is achieved) | 5 (Growth inhibition effect is equal to or greater than 90%, or complete withering is achieved) | 5 (Growth inhibition effect is equal to or greater than 90%, or complete withering is achieved) | 5 (Growth inhibition effect is equal to or greater than 90%, or complete withering is achieved)
9 | CCCOc1cc(F)c(CS(=O)(=O)c2ncc(Cl)s2)c(F)c1 [Compound 1C-109] | 5 (Growth inhibition effect is equal to or greater than 90%, or complete withering is achieved) | 5 (Growth inhibition effect is equal to or greater than 90%, or complete withering is achieved) | 5 (Growth inhibition effect is equal to or greater than 90%, or complete withering is achieved) | 4 (Growth inhibition effect is equal to or greater than 70%, and less than 90%)
10 | CC(C)Oc1cc(F)c(CS(=O)(=O)c2ncc(Cl)s2)c(F)c1 [Compound 1C-111] | 5 (Growth inhibition effect is equal to or greater than 90%, or complete withering is achieved) | 5 (Growth inhibition effect is equal to or greater than 90%, or complete withering is achieved) | 5 (Growth inhibition effect is equal to or greater than 90%, or complete withering is achieved) | 5 (Growth inhibition effect is equal to or greater than 90%, or complete withering is achieved)
11 | CCCCOc1cc(F)c(CS(=O)(=O)c2ncc(Cl)s2)c(F)c1 [Compound 1C-112] | 5 (Growth inhibition effect is equal to or greater than 90%, or complete withering is achieved) | 5 (Growth inhibition effect is equal to or greater than 90%, or complete withering is achieved) | 5 (Growth inhibition effect is equal to or greater than 90%, or complete withering is achieved) | 3 (Growth inhibition effect equal to or greater than 50%, and less than 70%)
12 | CCCCOc1cc(Cl)c(CS(=O)(=O)c2ncc(Cl)s2)c(Cl)c1 [Compound 1C-113] | 5 (Growth inhibition effect is equal to or greater than 90%, or complete withering is achieved) | 5 (Growth inhibition effect is equal to or greater than 90%, or complete withering is achieved) | 5 (Growth inhibition effect is equal to or greater than 90%, or complete withering is achieved) | 5 (Growth inhibition effect is equal to or greater than 90%, or complete withering is achieved)
13 | O=S(=O)(Cc1ccc(OC(F)F)cc1)c1ncc(Cl)s1 [Compound 1C-114] | 5 (Growth inhibition effect is equal to or greater than 90%, or complete withering is achieved) | 5 (Growth inhibition effect is equal to or greater than 90%, or complete withering is achieved) | 5 (Growth inhibition effect is equal to or greater than 90%, or complete withering is achieved) | 1 (Growth inhibition effect is equal to or greater than 10%, and less than 30%)
14 | O=S(=O)(Cc1ccc(OC(F)(F)F)cc1)c1ncc(Cl)s1 [Compound 1C-115] | 5 (Growth inhibition effect is equal to or greater than 90%, or complete withering is achieved) | 5 (Growth inhibition effect is equal to or greater than 90%, or complete withering is achieved) | 5 (Growth inhibition effect is equal to or greater than 90%, or complete withering is achieved) | 1 (Growth inhibition effect is equal to or greater than 10%, and less than 30%)
15 | O=S(=O)(Cc1ccc(OC(F)(F)C(F)F)cc1)c1ncc(Cl)s1 [Compound 1C-116] | 5 (Growth inhibition effect is equal to or greater than 90%, or complete withering is achieved) | 5 (Growth inhibition effect is equal to or greater than 90%, or complete withering is achieved) | 5 (Growth inhibition effect is equal to or greater than 90%, or complete withering is achieved) | 3 (Growth inhibition effect equal to or greater than 50%, and less than 70%)
16 | COCOc1cc(F)c(CS(=O)(=O)c2ncc(Cl)s2)c(F)c1 [Compound 1C-118] | 5 (Growth inhibition effect is equal to or greater than 90%, or complete withering is achieved) | 5 (Growth inhibition effect is equal to or greater than 90%, or complete withering is achieved) | 5 (Growth inhibition effect is equal to or greater than 90%, or complete withering is achieved) | 4 (Growth inhibition effect is equal to or greater than 70%, and less than 90%)
